Measured values: the NIST ThermoML archive (doi:10.1021/je0301500)

Experiments:
[1] = 303.15 K; for surface tension liquid-gas: Ring tensiometer; for viscosity / mass density: 101.33 kPa, Liquid; for viscosity: Falling or rolling sphere viscometry; for mass density: Vibrating tube method
[2] = xn = mol fraction of the nth substance listed; conditions: 303.15 K; for surface tension liquid-gas: Ring tensiometer; for viscosity / mass density: 101.33 kPa, Liquid; for viscosity: Falling or rolling sphere viscometry; for mass density: Vibrating tube method

CCCC(=O)OCC [ethyl butanoate]
[1]
Conditions | mass density [kg/m3] | surface tension liquid-gas [mN/m] | viscosity [mPa·s]
– | 868.21 | 23.4 | 0.591

CCCC(=O)OCC [ethyl butanoate] + CO
[2]
Conditions | mass density [kg/m3] | surface tension liquid-gas [mN/m] | viscosity [mPa·s]
x1 = 0.05 | – | 21.86 | –
x1 = 0.101 | – | 22.03 | –
x1 = 0.104 | – | – | 0.511
x1 = 0.15 | – | 22.22 | –
x1 = 0.1993 | 820.83 | – | –
x1 = 0.2 | – | 22.36 | –
x1 = 0.2036 | – | – | 0.517
x1 = 0.299 | – | 22.65 | –
x1 = 0.3 | 832.61 | – | –
x1 = 0.3147 | – | – | 0.522
x1 = 0.4 | 841.45 | 22.85 | –
x1 = 0.4147 | – | – | 0.529
x1 = 0.449 | 845.03 | – | –
x1 = 0.474 | 846.71 | – | –
x1 = 0.496 | – | 22.99 | –
x1 = 0.4995 | 848.3 | – | –
x1 = 0.5064 | – | – | 0.535
x1 = 0.5997 | 853.94 | – | –
x1 = 0.605 | – | 23.12 | –
x1 = 0.6226 | – | – | 0.543
x1 = 0.65 | 856.33 | – | –
x1 = 0.6976 | – | – | 0.551
x1 = 0.7 | – | 23.18 | –
x1 = 0.7495 | 860.43 | – | –
x1 = 0.8 | – | 23.29 | –
x1 = 0.8054 | – | – | 0.565
x1 = 0.883 | – | 23.35 | –
x1 = 0.899 | 865.48 | – | –
x1 = 0.9001 | 865.54 | – | –
x1 = 0.9004 | – | – | 0.577
x1 = 0.9465 | 866.88 | – | –

CCCC(=O)OCC [ethyl butanoate] + O
[2]
Conditions | mass density [kg/m3] | surface tension liquid-gas [mN/m] | viscosity [mPa·s]
x2 = 0.0128 | – | – | 0.587
x2 = 0.018 | – | 23.46 | –
x2 = 0.019 | 868.19 | – | –
x2 = 0.0319 | – | – | 0.584
x2 = 0.033 | 868.46 | – | –
x2 = 0.039 | 868.71 | – | 0.586
x2 = 0.041 | – | 23.53 | –
x2 = 0.0488 | – | – | 0.584
x2 = 0.055 | – | 23.6 | –
x2 = 0.056 | 868.98 | – | –
x2 = 0.0588 | – | – | 0.597

CO [methanol]
[1]
Conditions | mass density [kg/m3] | surface tension liquid-gas [mN/m] | viscosity [mPa·s]
– | 781.91 | 21.68 | 0.504

CO [methanol] + O
[2]
Conditions | mass density [kg/m3]
x2 = 0.1031 | 799.74
x2 = 0.2055 | 818.52
x2 = 0.3014 | 836.97
x2 = 0.4013 | 857.06
x2 = 0.4994 | 877.48
